Experimental data taken from patent US20220137057A1 (priority 2019, published 2022).
Like-named read-outs stand apart in the source and are kept apart here.

How the values were obtained:
[1] = system: Pyricularia oryzae, Strain J1; format: cell-based; conditions: for Fractional contribution of metabolite RI 3507: control 0.09 to 0.12; for Position of enzymatic inhibition in the metabolic sequence (breaking point): from increase/decrease of label incorporation, FIG. 3; for Non-polar metabolites changed (number of metabolite MIDs) / Polar metabolites changed (number of metabolite MIDs): treatment vs control; for Non-polar metabolites changed (number of metabolite MIDs): threshold 2% M0 difference, non-polar phase; for Polar metabolites changed (number of metabolite MIDs): threshold 5% M0 difference, polar phase
ergosterol biosynthesis = assay: Metabolomics (metabolite profiling) of fenpropidin treatment, FIG. 5; format: cell-based; conditions: samples 0.5, 2, 6 and 48 hours after treatment
Lemna paucicostata = conditions: in vivo

Structure (SMILES)	Mode-of-action pinpointed by MIAMI [1]	Fractional contribution of metabolite RI 3507 ([1]; 2 hours after treatment)	Fractional contribution of metabolite RI 3507 ([1]; 6 hours after treatment)	Position of enzymatic inhibition in the metabolic sequence (breaking point) [1]	Non-polar metabolites changed (number of metabolite MIDs) [1]	Polar metabolites changed (number of metabolite MIDs) [1]	Change in ergosterol (metabolomics, fold-change to control) (ergosterol biosynthesis)	Change in fractional contribution of differentially labeled metabolites (Lemna paucicostata)	Mode-of-action indicated by MIAMI (Lemna paucicostata)
Fc1ccc([C@]2(Cn3cncn3)O[C@H]2c2ccccc2Cl)cc1 (racemic) [fung 2, Epoxiconazole]	a hand full of potential targets in steroid biosynthesis	0.17	0.37	between RI 3569 and RI 3309	34	26	–	–	–
CC(Cc1ccc(C(C)(C)C)cc1)CN1CCCCC1 (stereo not drawn) [fung 1, Fenpropidin]	a hand full of potential targets in steroid biosynthesis	0.16	0.18	between metabolites RI 3507 and RI 3309	34	19	reductions in ergosterol, however not significantly after 6 hours	–	–
CC(C)C1(C)N=C(c2ncccc2C(=O)O)NC1=O (stereo not drawn) [herbicide four, Imazapyr]	–	–	–	–	–	–	–	increase in fractional contribution, except for valine	mode-of-action in the valine biosynthesis pathway
